Results on 42 molecules are retold here after ChEMBL document CHEMBL1140633, “The application of 3D-QSAR studies for novel cannabinoid ligands substituted at the C1' position of the alkyl side chain on the structural requirements for binding to cannabinoid receptors CB1 and CB2” (J Med Chem, 2007).

As a reminder, the Ki is a dissociation constant, usually derived from enzyme kinetics or from competition with a known ligand. High values mean a looser hold on the target, low ones a stronger hold on the target.

One experiment has as its target Cannabinoid receptor 1 (Homo sapiens, UniProt P21554). As to the kind of experiment: Binding affinity to CB1 receptor.
The next experiment concerns the target Cannabinoid receptor 2 (Homo sapiens, UniProt P34972). As to the kind of experiment: Binding affinity to CB2 receptor.

Chain of Cannabinoid receptor 1 (P21554 whole entry): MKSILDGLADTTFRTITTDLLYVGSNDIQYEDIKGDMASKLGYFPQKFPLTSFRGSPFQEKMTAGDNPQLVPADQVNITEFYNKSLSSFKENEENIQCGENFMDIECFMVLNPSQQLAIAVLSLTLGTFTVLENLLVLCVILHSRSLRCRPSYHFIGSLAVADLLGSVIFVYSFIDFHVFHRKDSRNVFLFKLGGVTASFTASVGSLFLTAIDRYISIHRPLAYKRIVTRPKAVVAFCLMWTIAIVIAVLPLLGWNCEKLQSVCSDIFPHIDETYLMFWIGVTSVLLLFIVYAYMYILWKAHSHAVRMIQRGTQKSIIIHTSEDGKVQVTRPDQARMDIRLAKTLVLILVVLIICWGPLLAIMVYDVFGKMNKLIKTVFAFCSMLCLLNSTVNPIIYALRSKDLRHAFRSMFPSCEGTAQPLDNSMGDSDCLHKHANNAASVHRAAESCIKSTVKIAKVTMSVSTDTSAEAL
Chain of Cannabinoid receptor 2 (P34972 whole entry): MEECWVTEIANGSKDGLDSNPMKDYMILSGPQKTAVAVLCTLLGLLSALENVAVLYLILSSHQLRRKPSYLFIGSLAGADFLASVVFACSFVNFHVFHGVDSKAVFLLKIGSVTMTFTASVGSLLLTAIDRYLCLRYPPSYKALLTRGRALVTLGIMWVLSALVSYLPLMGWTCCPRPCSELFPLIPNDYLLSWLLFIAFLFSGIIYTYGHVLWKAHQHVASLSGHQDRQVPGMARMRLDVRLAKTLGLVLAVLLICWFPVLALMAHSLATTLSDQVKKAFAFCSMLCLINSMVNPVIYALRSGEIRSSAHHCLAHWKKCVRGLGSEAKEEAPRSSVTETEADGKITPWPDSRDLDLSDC

`C=C(C)C1CCC(C)=C[C@H]1c1c(O)cc(C2(C#N)CCCCC2)cc1O` (stereo partly specified): the Ki on Cannabinoid receptor 1 was determined as 0.319 µM; on Cannabinoid receptor 2, 0.111 µM.

In the case of `CC1=CC[C@@H]2[C@@H](C1)c1c(O)cc(C(C)(C)CCCCC(=O)NN3CCCCC3)cc1OC2(C)C`, the Ki on Cannabinoid receptor 1 was found to be 0.0045 µM; on Cannabinoid receptor 2 it was 0.0032 µM.

Regarding `CCCCCCC1(c2cc(O)c3c(c2)OC(C)(C)[C@@H]2CC=C(C)C[C@@H]32)SCCS1`, the Ki at Cannabinoid receptor 1 stood at 0.00032 µM; at Cannabinoid receptor 2, 0.00052 µM.

In the case of `CC1=CC[C@@H]2[C@@H](C1)c1c(O)cc(-c3cccc4ccccc34)cc1OC2(C)C`, the Ki at Cannabinoid receptor 1 was 0.0117 µM; at Cannabinoid receptor 2 it was 0.00939 µM.

With `CC1=CC[C@@H]2[C@@H](C1)c1c(O)cc(C3(C#N)CCCC3)cc1OC2(C)C`, the Ki stood at 0.0279 µM on Cannabinoid receptor 1 and 0.0252 µM on Cannabinoid receptor 2.

`CCCc1ccc(-c2cc(O)c3c(c2)OC(C)(C)[C@@H]2CC=C(C)C[C@@H]32)cc1`: the Ki on Cannabinoid receptor 1 was 0.0578 µM; at Cannabinoid receptor 2, 0.108 µM.

In the case of `CC1=CC[C@@H]2[C@@H](C1)c1c(O)cc(C(C)(C)CCCCCC#N)cc1OC2(C)C`, the figures for the Ki on Cannabinoid receptor 1 and at Cannabinoid receptor 2 were 0.0002 µM and 0.0029 µM, respectively.

In the case of `CC1=CC[C@@H]2[C@@H](C1)c1c(O)cc(C(C)(C)CCCCOc3ccc(C#N)cc3)cc1OC2(C)C`, the values for the Ki on Cannabinoid receptor 1 and at Cannabinoid receptor 2 were 0.0015 µM and 0.0011 µM, respectively.

Take `CC1=CC[C@@H]2[C@@H](C1)c1c(O)cc(C34CC5CC(CC(C5)C3)C4)cc1OC2(C)C`: the Ki at Cannabinoid receptor 1 amounted to 0.0068 µM; at Cannabinoid receptor 2, 0.052 µM.

As to `C=C(C)C1CCC(C)=C[C@H]1c1c(O)cc(-c2ccc(C)cc2)cc1O` (stereo partly specified), the Ki at Cannabinoid receptor 1 turned out to be 0.638 µM; at Cannabinoid receptor 2, 0.374 µM.

Regarding `CCCCCCCc1cc(O)c2c(c1)OC(C)(C)[C@@H]1CC=C(C)C[C@@H]21`, the Ki on Cannabinoid receptor 1 came out at 0.022 µM. This counts as double-digit nanomolar.

On Cannabinoid receptor 1, `CC1=CC[C@@H]2[C@@H](C1)c1c(O)cc(CCCCCN=[N+]=[N-])cc1OC2(C)C` yielded a Ki of 0.019 µM.

With `CCCCCCC1(c2cc(O)c3c(c2)OC(C)(C)[C@@H]2CC=C(C)C[C@@H]32)CC1(Br)Br` (stereo partly specified), the Ki on Cannabinoid receptor 1 was determined as 0.00071 µM; on Cannabinoid receptor 2, 0.00103 µM.

Consider `CC1=CC[C@@H]2[C@@H](C1)c1c(O)cc(C(C)(C)C3CCCCCC3)cc1OC2(C)C`, for which the Ki at Cannabinoid receptor 1 stood at 0.00094 µM; at Cannabinoid receptor 2, 0.00022 µM.

Turning to `C=C(C)C1CCC(C)=C[C@H]1c1c(O)cc(C2(CCCCCC)CC2)cc1O` (stereo partly specified), the Ki amounted to 0.0587 µM on Cannabinoid receptor 1 and 0.0992 µM on Cannabinoid receptor 2.

Consider `CC1=CC[C@@H]2[C@@H](C1)c1c(O)cc(C(C)(C)C3CCCC3)cc1OC2(C)C`, for which the inhibitory constant (Ki) at Cannabinoid receptor 1 worked out at 0.00034 µM; on Cannabinoid receptor 2 it was 0.00039 µM.

Take `C=C(C)C1CCC(C)=C[C@H]1c1c(O)cc(-c2cccc3ccccc23)cc1O` (stereo partly specified): the inhibition constant Ki on Cannabinoid receptor 1 came to 0.754 µM; on Cannabinoid receptor 2, 0.222 µM.

In the case of `CC1=CC[C@@H]2[C@@H](C1)c1c(O)cc(C3SCCS3)cc1OC2(C)C`, the Ki worked out at 0.168 µM at Cannabinoid receptor 1 and 0.103 µM on Cannabinoid receptor 2.

Consider `CCCCCCC1(c2cc(O)c3c(c2)OC(C)(C)[C@@H]2CC=C(C)C[C@@H]32)OCCO1`, for which the Ki amounted to 0.00052 µM at Cannabinoid receptor 1 and 0.00022 µM on Cannabinoid receptor 2.

Regarding `CCCCCCC1(c2cc(O)c3c(c2)OC(C)(C)[C@@H]2CC=C(C)C[C@@H]32)Sc2ccccc2S1`, the Ki on Cannabinoid receptor 1 came out at 0.0569 µM; at Cannabinoid receptor 2 it was 0.257 µM.

Turning to `C=C(C)C1CCC(C)=C[C@H]1c1c(O)cc(C2(CCCCCC)CC2(Br)Br)cc1O` (stereo partly specified), the Ki turned out to be 0.189 µM on Cannabinoid receptor 1 and 0.0633 µM at Cannabinoid receptor 2.

The molecule `CC1=CC[C@@H]2[C@@H](C1)c1c(O)cc(CCCC(C)C)cc1OC2(C)C` showed a Ki at Cannabinoid receptor 1 of 0.141 µM.

`CC1=CC[C@@H]2[C@@H](C1)c1c(O)cc(C(C)(C)C)cc1OC2(C)C`: affinity at Cannabinoid receptor 1 was put at a Ki of 0.014 µM.

Turning to `C=C(C)C1CCC(C)=C[C@H]1c1c(O)cc(C2(CCCCCC)CC2(Cl)Cl)cc1O` (stereo partly specified), the Ki at Cannabinoid receptor 1 was determined as 0.666 µM; at Cannabinoid receptor 2, 0.0329 µM.

Consider `CC1=CC[C@@H]2[C@@H](C1)c1c(O)cc(Oc3ccccc3)cc1OC2(C)C`, for which the Ki on Cannabinoid receptor 1 amounted to 0.297 µM; on Cannabinoid receptor 2, 0.0236 µM.

Regarding `CC1=CC[C@@H]2[C@@H](C1)c1c(O)cc(C(C)(C)CCCCC#N)cc1OC2(C)C`, the values for the inhibition constant Ki on Cannabinoid receptor 1 and on Cannabinoid receptor 2 were 0.00175 µM and 0.0011 µM, respectively.

At Cannabinoid receptor 1, `CCCCCC(C)(C)c1cc(O)c2c(c1)OC(C)(C)[C@@H]1CC=C(C)C[C@@H]21` showed a Ki of 0.0027 µM.

Take `CCCCCCC1(c2cc(O)c3c(c2)OC(C)(C)[C@@H]2CC=C(C)C[C@@H]32)SCCCS1`: the Ki on Cannabinoid receptor 1 worked out at 0.0018 µM; on Cannabinoid receptor 2, 0.0036 µM.

For `C=C(C)C1CCC(C)=C[C@H]1c1c(O)cc(C2(C#N)CCCC2)cc1O` (stereo partly specified), the Ki amounted to 0.255 µM on Cannabinoid receptor 1 and 0.105 µM on Cannabinoid receptor 2.

Turning to `CCCCCCC1(c2cc(O)c3c(c2)OC(C)(C)[C@@H]2CC=C(C)C[C@@H]32)CC1`, the inhibition constant Ki at Cannabinoid receptor 1 is 0.00044 µM; at Cannabinoid receptor 2 it was 0.00086 µM.

`CC1=CC[C@@H]2[C@@H](C1)c1c(O)cc(C(C)(C)CCCCBr)cc1OC2(C)C`: at Cannabinoid receptor 1, the Ki turned out to be 0.00043 µM. In other words, the sub-nanomolar range.

Regarding `CCc1ccc(-c2cc(O)c3c(c2)OC(C)(C)[C@@H]2CC=C(C)C[C@@H]32)cc1`, the figures for the Ki at Cannabinoid receptor 1 and on Cannabinoid receptor 2 were 0.119 µM and 0.0517 µM, respectively.

With `CCCCCCC(=O)c1cc(O)c2c(c1)OC(C)(C)[C@@H]1CC=C(C)C[C@@H]21`, the values for the inhibition constant (Ki) at Cannabinoid receptor 1 and at Cannabinoid receptor 2 were 0.0217 µM and 0.0837 µM, respectively.

As for `CCCCCCC1(c2cc(O)c3c(c2)OC(C)(C)[C@@H]2CC=C(C)C[C@@H]32)SC(C)C(C)S1` (stereo partly specified), the inhibitory constant (Ki) on Cannabinoid receptor 1 came out at 0.0323 µM; on Cannabinoid receptor 2, 0.0197 µM.

In turn, `CCCCC(C)(C)c1cc(O)c2c(c1)OC(C)(C)[C@@H]1CC=C(C)C[C@@H]21` gave a Ki at Cannabinoid receptor 1 of 0.0039 µM.

On to `CCCCCCC1(c2cc(O)c3c(c2)OC(C)(C)[C@@H]2CC=C(C)C[C@@H]32)CC1(Cl)Cl` (stereo partly specified), for which the Ki on Cannabinoid receptor 1 is 0.00127 µM; on Cannabinoid receptor 2, 0.00029 µM.

As to `CC1=CC[C@@H]2[C@@H](C1)c1c(O)cc(-c3ccc(C)cc3)cc1OC2(C)C`, the Ki was 0.0955 µM at Cannabinoid receptor 1 and 0.0718 µM on Cannabinoid receptor 2.

For the molecule `C=C(CCCCCC)c1cc(O)c2c(c1)OC(C)(C)[C@@H]1CC=C(C)C[C@@H]21`, the Ki on Cannabinoid receptor 1 was determined as 0.00217 µM; at Cannabinoid receptor 2 it was 0.0033 µM.

As for `CCCCCCC1(c2cc(O)c3c(c2)OC(C)(C)[C@@H]2CC=C(C)C[C@@H]32)CCCC1`, the Ki worked out at 0.00045 µM at Cannabinoid receptor 1 and 0.00192 µM on Cannabinoid receptor 2.

Take `CC1=CC[C@@H]2[C@@H](C1)c1c(O)cc(C3(C#N)CCCCC3)cc1OC2(C)C`: the Ki on Cannabinoid receptor 1 turned out to be 0.00826 µM; on Cannabinoid receptor 2 it was 0.00386 µM.

As to `CCCC(C)(C)c1cc(O)c2c(c1)OC(C)(C)[C@@H]1CC=C(C)C[C@@H]21`, at Cannabinoid receptor 1, affinity was put at a Ki of 0.0109 µM.

As for `C=C(C)C1CCC(C)=C[C@H]1c1c(O)cc(C2(CCCCCC)SCCS2)cc1O` (stereo partly specified), the Ki on Cannabinoid receptor 1 was found to be 0.136 µM; on Cannabinoid receptor 2, 0.0504 µM.
